Laboratory results published in Sander's compilation of Henry's law constants.

Assay: Henry solubility constant Hcp at 298.15 K (mol/(m3 Pa))
[1] = reference: Druaux et al. (1998)
[2] = reference: Roberts and Pollien (1997)
[3] = reference: Amoore and Buttery (1978)
[4] = reference: Butler et al. (1935)
[5] = reference: Murphy et al. (1983a)
[6] = reference: Cetin and Odabasi (2005)
[7] = reference: Charles and Destaillats (2005)
[8] = reference: Rochester and Symonds (1973)
[9] = reference: Kawamoto and Urano (1989)

## C=CC(O)CCCCC (centres undefined) [1-octen-3-ol]
[1]
  Henry solubility constant Hcp: 0.25
[2]
  Henry solubility constant Hcp: 0.13
reference: Wu et al. (2022a)
  Henry solubility constant Hcp: 0.19

## C1COCCN1 [1-oxa-4-azacyclohexane]
reference: Nguyen (2013)
  Henry solubility constant Hcp: 190

## CCCCCN [1-pentanamine]
[3]
  Henry solubility constant Hcp: 0.31
reference: Christie and Crisp (1967)
  Henry solubility constant Hcp: 0.4

## CCCCCO [1-pentanol]
[4]
  Henry solubility constant Hcp: 0.78
reference: Gupta et al. (2000)
  Henry solubility constant Hcp: 0.95
reference: Lei et al. (2007)
  Henry solubility constant Hcp: 0.75
reference: Shunthirasingham et al. (2013)
  Henry solubility constant Hcp: 0.81

## CCCCCO[N+](=O)[O-] [1-pentyl nitrate]
reference: Hauff et al. (1998)
  Henry solubility constant Hcp: 0.0066

## CC(=O)c1ccccc1 [1-phenylethanone]
reference: Allen et al. (1998)
  Henry solubility constant Hcp: 0.97
reference: Betterton (1991)
  Henry solubility constant Hcp: 1.1

## CCCS [1-propanethiol]
reference: Coquelet and Richon (2005)
  Henry solubility constant Hcp: 0.0017
reference: Haimi et al. (2006)
  Henry solubility constant Hcp: 0.0018

## CCCO [1-propanol]
reference: Burnett (1963)
  Henry solubility constant Hcp: 1.6
[4]
  Henry solubility constant Hcp: 1.4
reference: Gupta et al. (2000)
  Henry solubility constant Hcp: 1.2
reference: Richon et al. (1985)
  Henry solubility constant Hcp: 1.8
reference: Snider and Dawson (1985)
  Henry solubility constant Hcp: 1.3
reference: Straver and de Loos (2005)
  Henry solubility constant Hcp: 1.5
reference: Vitenberg and Dobryakov (2008)
  Henry solubility constant Hcp: 1.5

## C1=NCCC1 [1-pyrroline]
[3]
  Henry solubility constant Hcp: 1.6

## OCCC(F)(F)C(F)(F)C(F)(F)C(F)(F)C(F)(F)C(F)(F)F [1H,1H,2H,2H-perfluoro-1-octanol]
reference: Goss et al. (2006)
  Henry solubility constant Hcp: 0.0015
reference: Lei et al. (2004)
  Henry solubility constant Hcp: 8.5e-05
reference: Wu and Chang (2011)
  Henry solubility constant Hcp: 0.00017

## OCCC(F)(F)C(F)(F)C(F)(F)C(F)(F)C(F)(F)C(F)(F)C(F)(F)C(F)(F)F [1H,1H,2H,2H-perfluorodecan-1-ol]
reference: Lei et al. (2004)
  Henry solubility constant Hcp: 0.00017
reference: Wu and Chang (2011)
  Henry solubility constant Hcp: 0.0002

## OCCC(F)(F)C(F)(F)C(F)(F)C(F)(F)F [1H,1H,2H,2H-perfluorohexan-1-ol]
reference: Goss et al. (2006)
  Henry solubility constant Hcp: 0.013
reference: Lei et al. (2004)
  Henry solubility constant Hcp: 6.1e-05
reference: Wu and Chang (2011)
  Henry solubility constant Hcp: 0.0066

## Clc1ccc(-c2c(Cl)c(Cl)cc(Cl)c2Cl)c(Cl)c1Cl [2,2',3,3',4,5',6'-heptachlorobiphenyl]
[5]
  Henry solubility constant Hcp: 0.0045

## Clc1cccc(-c2ccc(Cl)c(Cl)c2Cl)c1Cl [2,2',3,3',4-pentachlorobiphenyl]
[5]
  Henry solubility constant Hcp: 0.049

## Clc1cc(Cl)c(-c2c(Cl)ccc(Cl)c2Cl)cc1Cl [2,2',3,4',5',6-hexachlorobiphenyl]
[5]
  Henry solubility constant Hcp: 0.033

## Clc1cc(Cl)c(-c2c(Cl)cc(Cl)c(Cl)c2Cl)cc1Cl [2,2',3,4,4',5',6-heptachlorobiphenyl]
[5]
  Henry solubility constant Hcp: 0.016

## Clc1ccc(-c2cc(Cl)c(Cl)c(Cl)c2Cl)c(Cl)c1 [2,2',3,4,4',5-hexachlorobiphenyl]
[5]
  Henry solubility constant Hcp: 0.021

## Clc1ccc(Cl)c(-c2c(Cl)cc(Cl)c(Cl)c2Cl)c1 [2,2',3,4,5',6-hexachlorobiphenyl]
[5]
  Henry solubility constant Hcp: 0.016

## Clc1ccc(Cl)c(-c2cc(Cl)c(Cl)c(Cl)c2Cl)c1 [2,2',3,4,5,5'-hexachlorobiphenyl]
[5]
  Henry solubility constant Hcp: 0.025

## Clc1ccc(Cl)c(-c2cccc(Cl)c2Cl)c1 [2,2',3,5'-tetrachlorobiphenyl]
[5]
  Henry solubility constant Hcp: 0.041

## Brc1cc(Br)c(Oc2cc(Br)c(Br)cc2Br)cc1Br [2,2',4,4',5,5'-hexabromodiphenyl ether]
[6]
  Henry solubility constant Hcp: 3.5
reference: Long et al. (2017)
  Henry solubility constant Hcp: 3.7

## Clc1cc(Cl)c(-c2cc(Cl)c(Cl)cc2Cl)cc1Cl [2,2',4,4',5,5'-hexachlorobiphenyl]
[5]
  Henry solubility constant Hcp: 0.028

## Brc1cc(Br)c(Oc2cc(Br)c(Br)cc2Br)c(Br)c1 [2,2',4,4',5,6'-hexabromodiphenyl ether]
[6]
  Henry solubility constant Hcp: 7.3
reference: Long et al. (2017)
  Henry solubility constant Hcp: 7.1

## Brc1ccc(Oc2cc(Br)c(Br)cc2Br)c(Br)c1 [2,2',4,4',5-pentabromodiphenyl ether]
[6]
  Henry solubility constant Hcp: 1.5
[7]
  Henry solubility constant Hcp: 0.27
reference: Long et al. (2017)
  Henry solubility constant Hcp: 1.5

## Clc1ccc(-c2cc(Cl)c(Cl)cc2Cl)c(Cl)c1 [2,2',4,4',5-pentachlorobiphenyl]
[7]
  Henry solubility constant Hcp: 0.0088

## Brc1ccc(Oc2c(Br)cc(Br)cc2Br)c(Br)c1 [2,2',4,4',6-pentabromodiphenyl ether]
[6]
  Henry solubility constant Hcp: 3.8
[7]
  Henry solubility constant Hcp: 0.19
reference: Long et al. (2017)
  Henry solubility constant Hcp: 3.6

## Brc1ccc(Oc2ccc(Br)cc2Br)c(Br)c1 [2,2',4,4'-tetrabromodiphenyl ether]
[6]
  Henry solubility constant Hcp: 0.87
[7]
  Henry solubility constant Hcp: 0.17
reference: Long et al. (2017)
  Henry solubility constant Hcp: 0.91

## Clc1ccc(-c2cc(Cl)ccc2Cl)c(Cl)c1 [2,2',4,5'-tetrachlorobiphenyl]
[5]
  Henry solubility constant Hcp: 0.049

## Clc1ccc(Cl)c(-c2cc(Cl)ccc2Cl)c1 [2,2',5,5'-tetrachlorobiphenyl]
[5]
  Henry solubility constant Hcp: 0.045

## Clc1ccc(Cl)c(-c2ccccc2Cl)c1 [2,2',5-trichlorobiphenyl]
[5]
  Henry solubility constant Hcp: 0.049

## Clc1ccccc1-c1c(Cl)cccc1Cl [2,2',6-trichlorobiphenyl]
[5]
  Henry solubility constant Hcp: 0.047

## Clc1ccccc1-c1ccccc1Cl [2,2'-dichlorobiphenyl]
[5]
  Henry solubility constant Hcp: 0.045

## OCC(F)(F)F [2,2,2-trifluoroethanol]
reference: Chen et al. (2003)
  Henry solubility constant Hcp: 0.47
[8]
  Henry solubility constant Hcp: 0.58

## CC(=O)OCC(F)(F)F [2,2,2-trifluoroethyl ethanoate]
reference: Kutsuna et al. (2004)
  Henry solubility constant Hcp: 0.0057

## O=COCC(F)(F)F [2,2,2-trifluoroethyl methanoate]
reference: Kutsuna et al. (2005)
  Henry solubility constant Hcp: 0.0054

## OCC(F)(F)C(F)(F)F [2,2,3,3,3-pentafluoro-1-propanol]
reference: Chen et al. (2003)
  Henry solubility constant Hcp: 0.14
[8]
  Henry solubility constant Hcp: 0.45

## OCC(F)(F)C(F)F [2,2,3,3-tetrafluoro-1-propanol]
reference: Chen et al. (2003)
  Henry solubility constant Hcp: 1.4
[8]
  Henry solubility constant Hcp: 1.6

## FC(F)(F)C(Cl)Cl [2,2-dichloro-1,1,1-trifluoroethane]
reference: Chang and Criddle (1995)
  Henry solubility constant Hcp: 0.00032
reference: Kutsuna (2013)
  Henry solubility constant Hcp: 0.00023

## CC(C)(Cl)Cl [2,2-dichloropropane]
reference: Bakierowska and Trzeszczyński (2003)
  Henry solubility constant Hcp: 0.00081

## Clc1ccc(-c2ccccc2Cl)cc1Cl [2,3',4'-trichlorobiphenyl]
[5]
  Henry solubility constant Hcp: 0.066
reference: Westcott et al. (1981)
  Henry solubility constant Hcp: 0.025

## Clc1ccc(-c2cc(Cl)c(Cl)cc2Cl)cc1Cl [2,3',4,4',5-pentachlorobiphenyl]
[7]
  Henry solubility constant Hcp: 0.018
[5]
  Henry solubility constant Hcp: 0.025

## Clc1cccc(-c2ccc(Cl)cc2Cl)c1 [2,3',4-trichlorobiphenyl]
[5]
  Henry solubility constant Hcp: 0.062

## Clc1cccc(-c2ccccc2Cl)c1 [2,3'-dichlorobiphenyl]
[5]
  Henry solubility constant Hcp: 0.047

## Clc1ccc(-c2c(Cl)ccc(Cl)c2Cl)cc1Cl [2,3,3',4',6-pentachlorobiphenyl]
[5]
  Henry solubility constant Hcp: 0.027

## Clc1cc(-c2ccc(Cl)c(Cl)c2Cl)cc(Cl)c1Cl [2,3,3',4,4',5'-hexachlorobiphenyl]
[5]
  Henry solubility constant Hcp: 0.017

## Clc1ccc(-c2cc(Cl)c(Cl)c(Cl)c2Cl)cc1Cl [2,3,3',4,4',5-hexachlorobiphenyl]
[5]
  Henry solubility constant Hcp: 0.011

## Clc1ccc(-c2c(Cl)cc(Cl)c(Cl)c2Cl)cc1Cl [2,3,3',4,4',6-hexachlorobiphenyl]
[5]
  Henry solubility constant Hcp: 0.015

## Brc1ccc(Oc2cc(Br)c(Br)c(Br)c2Br)cc1 [2,3,4,4',5-pentabromodiphenyl ether]
[7]
  Henry solubility constant Hcp: 0.88

## CSSSC [2,3,4-trithiapentane]
[2]
  Henry solubility constant Hcp: 0.021
reference: Souchon et al. (2004)
  Henry solubility constant Hcp: 0.014

## Clc1cc2oc3cc(Cl)c(Cl)cc3c2cc1Cl [2,3,7,8-tetrachlorodibenzofuran]
reference: Friesen et al. (1993)
  Henry solubility constant Hcp: 0.59

## CCc1ncc(C)nc1CC [2,3-diethyl-5-methylpyrazine]
[2]
  Henry solubility constant Hcp: 0.81

## CCC(=O)C(C)=O [2,3-pentanedione]
reference: Wu et al. (2022b)
  Henry solubility constant Hcp: 0.13

## Clc1ccc(-c2cc(Cl)ccc2Cl)cc1 [2,4',5-trichlorobiphenyl]
[5]
  Henry solubility constant Hcp: 0.049

## Brc1ccc(Oc2ccc(Br)cc2Br)cc1 [2,4,4'-tribromodiphenyl ether]
[6]
  Henry solubility constant Hcp: 0.18
[7]
  Henry solubility constant Hcp: 0.12
reference: Long et al. (2017)
  Henry solubility constant Hcp: 0.16

## N#Cc1c(Cl)c(Cl)c(Cl)c(C#N)c1Cl [2,4,5,6-tetrachloro-1,3-dicyanobenzene]
[9]
  Henry solubility constant Hcp: 50

## Cc1cc(C)c(N)cc1C [2,4,5-trimethylbenzenamine]
reference: Jayasinghe et al. (1992)
  Henry solubility constant Hcp: 3.9

## O=[N+]([O-])c1ccc(Oc2c(Cl)cc(Cl)cc2Cl)cc1 [2,4,6-trichlorophenyl 4-nitrophenyl ether]
[9]
  Henry solubility constant Hcp: > 8.1

## Cc1ccc(Cl)cc1Cl [2,4-dichloro-1-methylbenzene]
reference: Brockbank et al. (2013)
  Henry solubility constant Hcp: 0.0027

## Cc1ccnc(C)c1 [2,4-dimethylpyridine]
reference: Hawthorne et al. (1985)
  Henry solubility constant Hcp: 0.99

## CC(C)CCC(C)C [2,5-dimethylhexane]
reference: Dohányosová et al. (2004)
  Henry solubility constant Hcp: 2.4e-06

## Cc1cnc(C)cn1 [2,5-dimethylpyrazine]
[1]
  Henry solubility constant Hcp: 5.5
reference: Marin et al. (1999)
  Henry solubility constant Hcp: 7.1

## N#Cc1c(Cl)cccc1Cl [2,6-dichlorobenzenenitrile]
reference: Schoene and Steinhanses (1985)
  Henry solubility constant Hcp: 0.48
